Results from patent US20080242688A1, “Method 741” (ASTRAZENECA AB, priority 2007, published 2008).
“And” between values parts separate entries of the source, which are not always exact repeats. Identical values can stand only once.

Legend:
Multiple dose PK/TK, dog = type: in vivo; settings: Beagle, dog, in vivo, po, 0295AD, capsules fed
Text: This section provides a summary of the pharmacokinetic and metabolism properties of AZD0328 derived from in vivo studies. […] The derived PK/TK parameters from these studies are presented in Table 4 for single dose studies (DMR4, 0619LR, 20030191PCR, DMO16, DMB10, DMW12, 50190, 0190DD and 03.330/1), and are presented in Table 5 multiple dose PK/TK studies (DMR4, 0612AR, DMB15, 50190, 0190DD and 0295AD).

human hepatocytes = assay: Human hepatocyte incubations; type: in vitro ADME; settings: four separate batches of human hepatocytes
Procedure: Pyridinyl methylation of AZD0328 was a unique polar metabolite (M2) observed in dog hepatocytes. Other minor hydroxylation/oxidation and glucuronide conjugation products were detected in monkey, dog, rat, and guinea pig hepatocyte incubations and mini-pig hepatic microsome incubations. […] Analysis of plasma and urine samples from either orally or iv dosed rats confirmed N-oxide product of AZD0328 was a main product in the excretion and circulation. The percentage of AZD0328 N-oxide in the plasma from male rats was much higher than from females.

rats = assay: Nicotine drug discrimination; type: in vivo, rat
muscarinic M5 receptor = muscarinic M5 receptor (Homo sapiens, UniProt P08912); assay: Selectivity panel, radioligand binding; settings: read-out: inhibition of specific radioligand binding
Procedure: (§1) Secondary effects of AZD0328 on targets other than the α7 nicotinic acetylcholine receptor (nAChR) were investigated in vitro. Selectivity against a broad panel of 129 receptors, ion channels, nuclear hormone receptors, transporters and enzymes was tested using radioligand binding assays (Report no. GPW003).

muscarinic M3 receptor = muscarinic M3 receptor (Homo sapiens, UniProt P20309); assay: Selectivity panel, radioligand binding; settings: read-out: inhibition of specific radioligand binding
Procedure: as §1

[1] = target: serotonergic 5-HT3 receptor (Homo sapiens, UniProt P46098); assay: Selectivity panel, radioligand binding; settings: read-out: inhibition of specific radioligand binding
Procedure: as §1

adrenergic α2B receptor = adrenergic α2B receptor (Homo sapiens, UniProt P18089); assay: Selectivity panel, radioligand binding; settings: read-out: inhibition of specific radioligand binding
Procedure: as §1

[2] = system: central nicotinic receptors; assay: Selectivity panel, radioligand binding; settings: 10 μM
Procedure: as §1

α7 receptor = α7 receptor (Rattus norvegicus, UniProt Q05941); assay: FFX hippocampal slice fEPSP, LTP; type: cell-based; settings: 10 μM
Text: In membranes prepared either from cultured, human recombinant α7 receptor-expressing, human embryonic kidney cells α7-HEK) or from rat brain hippocampus, AZD0328 competed with binding of an iodinated form of the high-affinity, selective α7 receptor antagonist snake toxin, [^125I]-α-bungarotoxin (BTX) (Table 1). In Xenopus oocytes injected with human, recombinant α7 receptor mRNA, AZD0328 activates whole cell currents (Table 2). […] In acutely dissociated rat hippocampal interneurons, AZD0328 elicits rapidly activated, desensitizing whole-cell current (Table 1), consistent with the known properties of rat neuronal α7 receptors. […] AZD0328 modulates synaptic function, consistent with the well-known role of α7 receptors as heteroreceptor modulators of glutamatergic and GABAergic synaptic function.

[3] = target: α7 receptor binding sites (Rattus norvegicus, UniProt Q05941); type: in vivo; settings: sc, 2-4 h
[4] = Maximum tolerated dose and 7 days oral toxicity in the dog; type: in vivo; settings: both sexes, dog, in vivo, oral; dogs, single doses of 4.5 to 17 mg/kg
Procedure: (§2) Single doses of 4.5 to 17 mg/kg were administrated to test AZD0328 to 2 male and 2 female dogs. […] Signs of nausea and at the higher doses vomiting was seen. In the 7 days repeated dose study 2 male and 2 female dogs were given 35 mg/kg per day. However, vomiting was the major clinical sign recorded during the study.

dogs = assay: as above; type: in vivo
Procedure: as §2

[5] = female, 17.3 mg/kg, dog 3F, 17.3 mg/kg (80 μmol/kg) split in two 6 h apart, day 35
[6] = female, 26 mg/kg, dog 6F, 26.0 mg/kg (120 μmol/kg) split into 17.3 and 8.7 mg/kg 6 h apart, day 35
[7] = female, 34.6 mg/kg, dog 6F, 34.6 mg/kg (160 μmol/kg) split in two 6 h apart, day 7
[8] = male, 8.65 mg/kg, dog 3M, 8.65 mg/kg (40 μmol/kg) split in two 6 h apart, day 7
[9] = male, 8.65 mg/kg, dog 3M, 8.65 mg/kg (40 μmol/kg) split in two 6 h apart, day 35
[10] = male, 17.3 mg/kg, dog 3M, 17.3 mg/kg (80 μmol/kg) split in two 6 h apart, day 7
[11] = male, 17.3 mg/kg, dog 3M, 17.3 mg/kg (80 μmol/kg) split in two 6 h apart, day 35
[12] = male, 26 mg/kg, dog 6M, 26.0 mg/kg (120 μmol/kg) split into 17.3 and 8.7 mg/kg 6 h apart, day 35
[13] = male, 34.6 mg/kg, dog 6M, 34.6 mg/kg (160 μmol/kg) split in two 6 h apart, day 7

Chain of muscarinic M5 receptor (P08912 whole entry): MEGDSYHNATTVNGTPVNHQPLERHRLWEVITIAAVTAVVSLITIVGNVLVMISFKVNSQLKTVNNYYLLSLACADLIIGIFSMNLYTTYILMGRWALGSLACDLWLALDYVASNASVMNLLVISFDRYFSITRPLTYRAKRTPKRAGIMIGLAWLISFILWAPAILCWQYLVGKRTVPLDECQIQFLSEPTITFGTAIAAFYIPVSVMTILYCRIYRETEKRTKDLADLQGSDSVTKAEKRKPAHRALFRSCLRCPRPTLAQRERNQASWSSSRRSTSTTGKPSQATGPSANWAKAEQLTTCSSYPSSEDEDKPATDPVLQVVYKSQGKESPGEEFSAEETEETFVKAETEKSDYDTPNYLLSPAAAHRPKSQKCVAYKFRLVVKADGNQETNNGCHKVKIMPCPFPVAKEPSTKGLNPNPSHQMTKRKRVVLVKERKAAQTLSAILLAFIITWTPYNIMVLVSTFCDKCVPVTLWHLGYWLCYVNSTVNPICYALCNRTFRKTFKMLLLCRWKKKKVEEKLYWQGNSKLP
Chain of muscarinic M3 receptor (P20309 whole entry): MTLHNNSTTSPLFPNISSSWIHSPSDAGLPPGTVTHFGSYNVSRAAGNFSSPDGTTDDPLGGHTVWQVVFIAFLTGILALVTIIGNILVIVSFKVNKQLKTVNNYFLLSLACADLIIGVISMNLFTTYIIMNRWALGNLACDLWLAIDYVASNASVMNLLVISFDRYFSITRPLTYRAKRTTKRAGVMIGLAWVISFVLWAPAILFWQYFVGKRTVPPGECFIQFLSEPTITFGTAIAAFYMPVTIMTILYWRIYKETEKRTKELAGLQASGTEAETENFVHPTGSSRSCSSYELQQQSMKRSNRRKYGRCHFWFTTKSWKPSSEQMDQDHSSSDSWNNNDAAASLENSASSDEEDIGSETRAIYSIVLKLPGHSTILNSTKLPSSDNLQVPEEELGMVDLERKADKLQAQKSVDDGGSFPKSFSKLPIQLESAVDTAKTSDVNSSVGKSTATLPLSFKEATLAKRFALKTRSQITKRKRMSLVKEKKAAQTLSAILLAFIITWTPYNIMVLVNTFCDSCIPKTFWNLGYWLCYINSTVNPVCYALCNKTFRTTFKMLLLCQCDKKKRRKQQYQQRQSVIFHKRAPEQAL
Chain of adrenergic α2B receptor (P18089 whole entry): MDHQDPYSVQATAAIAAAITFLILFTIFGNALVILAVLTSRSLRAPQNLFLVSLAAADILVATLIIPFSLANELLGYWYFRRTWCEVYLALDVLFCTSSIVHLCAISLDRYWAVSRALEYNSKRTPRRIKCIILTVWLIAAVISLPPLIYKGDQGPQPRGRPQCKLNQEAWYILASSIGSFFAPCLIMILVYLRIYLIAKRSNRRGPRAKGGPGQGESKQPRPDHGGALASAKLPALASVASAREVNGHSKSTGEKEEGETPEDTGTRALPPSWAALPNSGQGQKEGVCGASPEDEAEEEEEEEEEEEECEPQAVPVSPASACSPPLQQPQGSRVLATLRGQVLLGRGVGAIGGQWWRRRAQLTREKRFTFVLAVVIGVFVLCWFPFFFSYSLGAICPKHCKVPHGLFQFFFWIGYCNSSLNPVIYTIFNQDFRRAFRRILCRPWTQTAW
Chain of serotonergic 5-HT3 receptor (P46098 24-478): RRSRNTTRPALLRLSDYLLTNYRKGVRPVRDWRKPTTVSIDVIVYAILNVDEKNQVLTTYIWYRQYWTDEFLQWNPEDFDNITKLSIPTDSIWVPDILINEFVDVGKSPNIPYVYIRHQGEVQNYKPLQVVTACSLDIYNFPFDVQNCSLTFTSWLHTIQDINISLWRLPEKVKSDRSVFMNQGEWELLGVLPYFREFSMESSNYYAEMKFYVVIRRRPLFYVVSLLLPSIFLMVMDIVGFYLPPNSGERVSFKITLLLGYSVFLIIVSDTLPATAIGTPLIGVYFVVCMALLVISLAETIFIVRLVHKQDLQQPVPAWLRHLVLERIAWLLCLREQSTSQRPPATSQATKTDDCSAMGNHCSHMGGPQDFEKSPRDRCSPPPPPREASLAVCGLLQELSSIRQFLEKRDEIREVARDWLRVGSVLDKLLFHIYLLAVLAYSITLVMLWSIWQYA
Chain of α7 receptor binding sites (Q05941 23-502): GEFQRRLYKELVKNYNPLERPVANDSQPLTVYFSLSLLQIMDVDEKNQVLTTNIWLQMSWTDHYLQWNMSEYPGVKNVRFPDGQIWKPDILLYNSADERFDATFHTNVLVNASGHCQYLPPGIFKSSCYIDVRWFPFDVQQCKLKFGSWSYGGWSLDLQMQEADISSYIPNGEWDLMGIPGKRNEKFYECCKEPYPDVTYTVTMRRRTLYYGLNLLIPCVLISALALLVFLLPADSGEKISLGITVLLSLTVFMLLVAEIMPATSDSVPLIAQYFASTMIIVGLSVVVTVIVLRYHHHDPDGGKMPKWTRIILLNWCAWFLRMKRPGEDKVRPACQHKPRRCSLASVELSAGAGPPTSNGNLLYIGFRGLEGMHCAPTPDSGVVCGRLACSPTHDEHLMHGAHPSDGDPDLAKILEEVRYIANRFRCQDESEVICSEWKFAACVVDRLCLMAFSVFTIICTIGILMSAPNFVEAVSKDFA
Chain of α7 receptor (Q05941 23-502): as above

c1cnc2c(c1)C[C@@]1(CN3CCC1CC3)O2 [AZD0328, (R)-Spiro[1-azabicyclo[2.2.2]octane-3,2′(3′H)-furo[2,3-b]pyridine]]
Tmax at 7 day (Multiple dose PK/TK, dog; female, 17.3 mg/kg, dog 3F, 17.3 mg/kg (80 μmol/kg) split in two 6 h apart, day 7): 0.5 to 6.5 h
AUC at 35 day (Multiple dose PK/TK, dog; [5]): 2020 ng·h/mL and 9.33 µM·h
Cmax at 35 day (Multiple dose PK/TK, dog; [5]): 439 ng/mL and 2.03 µM
Tmax at 35 day (Multiple dose PK/TK, dog; [5]): 1 to 9 h
AUC (Multiple dose PK/TK, dog; [6]): 3460 ng·h/mL and 16 µM·h
Cmax (Multiple dose PK/TK, dog; [6]): 1190 ng/mL and 5.49 µM
Tmax (Multiple dose PK/TK, dog; [6]): 1 to 8.5 h
AUC (Multiple dose PK/TK, dog; [7]): 19.2 µM·h
AUC at 7 day (Multiple dose PK/TK, dog; [7]): 4160 ± 1990 ng·h/mL
Cmax (Multiple dose PK/TK, dog; [7]): 8.69 µM
Cmax at 7 day (Multiple dose PK/TK, dog; [7]): 1880 ± 1060 ng/mL
Tmax at 7 day (Multiple dose PK/TK, dog; [7]): 0.5 to 6.5 h
AUC at 7 day (Multiple dose PK/TK, dog; [8]): 868 ng·h/mL and 4 µM·h
Cmax at 7 day (Multiple dose PK/TK, dog; [8]): 286 ng/mL and 1.32 µM
Tmax at 7 day (Multiple dose PK/TK, dog; [8]): 0.5 to 7 h
AUC at 35 day (Multiple dose PK/TK, dog; [9]): 1250 ng·h/mL and 5.79 µM·h
Cmax at 35 day (Multiple dose PK/TK, dog; [9]): 373 ng/mL and 1.73 µM
Tmax at 35 day (Multiple dose PK/TK, dog; [9]): 8.5 to 9 h
AUC at 7 day (Multiple dose PK/TK, dog; [10]): 1930 ng·h/mL and 8.92 µM·h
Cmax at 7 day (Multiple dose PK/TK, dog; [10]): 619 ng/mL and 2.86 µM
Tmax at 7 day (Multiple dose PK/TK, dog; [10]): 6.5 to 7 h
AUC at 35 day (Multiple dose PK/TK, dog; [11]): 1690 ng·h/mL and 7.85 µM·h
Cmax at 35 day (Multiple dose PK/TK, dog; [11]): 608 ng/mL and 2.81 µM
Tmax at 35 day (Multiple dose PK/TK, dog; [11]): 1 to 9 h
AUC (Multiple dose PK/TK, dog; [12]): 4530 ng·h/mL and 20.9 µM·h
Cmax (Multiple dose PK/TK, dog; [12]): 8.16 µM
Tmax (Multiple dose PK/TK, dog; [12]): 0.5 to 2 h
AUC (Multiple dose PK/TK, dog; [13]): 5260 ng·h/mL and 24.3 µM·h
Cmax (Multiple dose PK/TK, dog; [13]): 1910 ng/mL and 8.82 µM
Tmax (Multiple dose PK/TK, dog; [13]): 0.5 to 7 h
metabolites in human hepatocyte incubations (human hepatocytes): no metabolites were detected
dose up to which nicotine-like stimulus properties were lacking (rats; rat, sc): properties at doses up to 5.4 mg/kg
nicotine-like stimulus effects (rats; rats trained to discriminate 0.3 mg/kg nicotine, sc): lack of nicotine-like stimulus properties
rate of responding (rats; rats, doses up to 30 mg/kg sc): severely depressed the rate of responding
inhibition at 10 µM (muscarinic M5 receptor): > 50%
inhibition at 10 µM (muscarinic M3 receptor): > 50%
inhibition at 10 µM [1]: > 50%
inhibition at 10 µM (adrenergic α2B receptor): > 50%
inhibition of specific radioligand binding [2]: > 50%
fEPSP LTP (α7 receptor): 153 % baseline
Dose active: [125I]-α-bungarotoxin binding ex vivo, increased receptor number [3]: 0.1 µg/kg
Cmax [4]: 2.8 to 14 µM
dose with slight QT prolongation (ECG) (dogs): ≥ 8.6 mg/kg
